Columns and labels:
[1] = target: T1, SNRK(h) (Homo sapiens, UniProt Q9NRH2); experiment: Eurofins kinase panel; format: biochemical; settings: read-out: Inhibition rate (%)
T1 construct: purchased Eurofins (KinaseProfiler)
T1 sequence (Q9NRH2 1-765): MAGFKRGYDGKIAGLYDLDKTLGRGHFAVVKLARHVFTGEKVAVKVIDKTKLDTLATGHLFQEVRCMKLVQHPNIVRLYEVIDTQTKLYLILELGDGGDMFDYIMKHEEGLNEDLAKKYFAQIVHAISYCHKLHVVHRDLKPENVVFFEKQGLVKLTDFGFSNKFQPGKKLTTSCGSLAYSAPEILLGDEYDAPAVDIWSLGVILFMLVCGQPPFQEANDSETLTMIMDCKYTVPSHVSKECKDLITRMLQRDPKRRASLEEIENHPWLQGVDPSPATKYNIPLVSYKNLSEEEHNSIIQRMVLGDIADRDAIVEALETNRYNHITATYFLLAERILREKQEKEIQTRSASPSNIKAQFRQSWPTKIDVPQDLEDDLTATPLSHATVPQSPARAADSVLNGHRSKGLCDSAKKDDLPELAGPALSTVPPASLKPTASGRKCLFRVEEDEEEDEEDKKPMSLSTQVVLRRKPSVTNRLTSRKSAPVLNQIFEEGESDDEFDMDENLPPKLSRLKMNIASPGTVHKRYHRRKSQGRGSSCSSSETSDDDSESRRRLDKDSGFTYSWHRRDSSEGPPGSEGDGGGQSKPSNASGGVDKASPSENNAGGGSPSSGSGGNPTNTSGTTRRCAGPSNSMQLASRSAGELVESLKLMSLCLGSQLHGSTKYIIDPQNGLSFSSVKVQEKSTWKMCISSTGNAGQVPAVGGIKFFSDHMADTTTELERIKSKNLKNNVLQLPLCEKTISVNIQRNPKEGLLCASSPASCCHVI

[2] = target: T2, VEGFR2 (KDR) (Homo sapiens, UniProt P35968); experiment: Kinase inhibition assay (ELISA); format: biochemical
T2 construct: purchased Eurofins (Fremont, United States)

[3] = target: T3, JNK1α1(h) (Homo sapiens, UniProt P45983); experiment: Eurofins kinase panel; format: biochemical; settings: read-out: Inhibition rate (%)
T3 construct: purchased Eurofins (KinaseProfiler)

[4] = target: T4, Abl(h) (Homo sapiens, UniProt P00519); experiment: Eurofins kinase panel; format: biochemical; settings: read-out: Inhibition rate (%)
T4 construct: purchased Eurofins (KinaseProfiler)

[5] = test system: BMDM (CSF-2); experiment: Macrophage survival (CCK-8); format: cell-based, murine; settings: Mus musculus, BMDM, 168 h; 7 days
Method: Murine bone marrow-derived macrophages (BMDMs) and PBMCs were used for cell viability studies. BMDMs were harvested by flushing the tibias and femurs of 6- to 8-week-old C57BL/6 mice and depleting red blood cells (RBCs) by RBC lysis (Biogems). For BMDM survival, the cells were cultured for 7 days in RPMI 1640 containing 10% fetal bovine serum (FBS), 100 U/mL penicillin, 100 μg/mL streptomycin and 100 ng/mL mouse CSF-1 (or CSF-2) with or without the tested compounds. PBMCs were obtained from HemaCare and cultured for 7 days in RPMI 1640 containing 10% fetal bovine serum (FBS), 100 U/mL penicillin, 100 μg/mL streptomycin and 100 ng/mL human CSF-1 (or CSF-2) with or without the tested compounds. Cell viability was measured using the CCK-8 assay. For IL-4/IL-13-induced macrophage survival analysis, viable cells were counted by trypan blue exclusion.

[6] = test system: PBMC (CSF-1); experiment: Macrophage survival (CCK-8); format: cell-based; settings: Homo sapiens, 168 h, 7 days, mean ± SD
Method: Murine bone marrow and human monocytes were stimulated with CSF-1 for 7 days together with the indicated inhibitor, and cell viability was evaluated by the CCK-8 assay. The IC50 values are shown as the mean ± SD (nM) from two independent tests. B-E, To test the impact of 3D185 on the polarization of CSF-1-induced macrophages, murine bone marrow cells and human monocytes were induced to mature into macrophages with CSF-1 for 7 days and then stimulated with CSF-1, IL-4 and IL-13 for an additional 48 h. The expression of the markers MHC-II (b), CD86 (c), and CD206 (d) on induced murine macrophages and CD206 expression on induced human macrophages (e) were determined by flow cytometry, and the mean fluorescence intensity (MFI) was analyzed with FlowJo. Representative data from two independent experiments. f Murine bone marrow cells (left panel) and human monocytes (right panel) were induced to mature into macrophages with CSF-1 for 7 days and then stimulated with CSF-1, IL-4 and IL-13 and treated with vehicle or the indicated inhibitor for an additional 48 h. Then, all cells were collected to count viable cells by staining with trypan blue
Murine bone marrow-derived macrophages (BMDMs) and PBMCs were used for cell viability studies. […] Cell viability was measured using the CCK-8 assay. For IL-4/IL-13-induced macrophage survival analysis, viable cells were counted by trypan blue exclusion.

T3 sequence (P45983 1-384 isoform P45983-2): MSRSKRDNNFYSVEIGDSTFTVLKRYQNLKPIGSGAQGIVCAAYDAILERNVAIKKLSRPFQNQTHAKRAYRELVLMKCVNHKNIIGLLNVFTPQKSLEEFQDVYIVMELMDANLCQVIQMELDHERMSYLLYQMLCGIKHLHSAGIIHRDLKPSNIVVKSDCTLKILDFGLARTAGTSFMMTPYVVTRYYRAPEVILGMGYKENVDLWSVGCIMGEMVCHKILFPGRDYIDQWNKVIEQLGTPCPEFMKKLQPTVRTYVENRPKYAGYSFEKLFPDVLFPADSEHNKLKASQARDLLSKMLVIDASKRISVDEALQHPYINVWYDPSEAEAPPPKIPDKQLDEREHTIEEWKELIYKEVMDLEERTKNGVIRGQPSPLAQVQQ
T4 sequence (P00519 whole entry): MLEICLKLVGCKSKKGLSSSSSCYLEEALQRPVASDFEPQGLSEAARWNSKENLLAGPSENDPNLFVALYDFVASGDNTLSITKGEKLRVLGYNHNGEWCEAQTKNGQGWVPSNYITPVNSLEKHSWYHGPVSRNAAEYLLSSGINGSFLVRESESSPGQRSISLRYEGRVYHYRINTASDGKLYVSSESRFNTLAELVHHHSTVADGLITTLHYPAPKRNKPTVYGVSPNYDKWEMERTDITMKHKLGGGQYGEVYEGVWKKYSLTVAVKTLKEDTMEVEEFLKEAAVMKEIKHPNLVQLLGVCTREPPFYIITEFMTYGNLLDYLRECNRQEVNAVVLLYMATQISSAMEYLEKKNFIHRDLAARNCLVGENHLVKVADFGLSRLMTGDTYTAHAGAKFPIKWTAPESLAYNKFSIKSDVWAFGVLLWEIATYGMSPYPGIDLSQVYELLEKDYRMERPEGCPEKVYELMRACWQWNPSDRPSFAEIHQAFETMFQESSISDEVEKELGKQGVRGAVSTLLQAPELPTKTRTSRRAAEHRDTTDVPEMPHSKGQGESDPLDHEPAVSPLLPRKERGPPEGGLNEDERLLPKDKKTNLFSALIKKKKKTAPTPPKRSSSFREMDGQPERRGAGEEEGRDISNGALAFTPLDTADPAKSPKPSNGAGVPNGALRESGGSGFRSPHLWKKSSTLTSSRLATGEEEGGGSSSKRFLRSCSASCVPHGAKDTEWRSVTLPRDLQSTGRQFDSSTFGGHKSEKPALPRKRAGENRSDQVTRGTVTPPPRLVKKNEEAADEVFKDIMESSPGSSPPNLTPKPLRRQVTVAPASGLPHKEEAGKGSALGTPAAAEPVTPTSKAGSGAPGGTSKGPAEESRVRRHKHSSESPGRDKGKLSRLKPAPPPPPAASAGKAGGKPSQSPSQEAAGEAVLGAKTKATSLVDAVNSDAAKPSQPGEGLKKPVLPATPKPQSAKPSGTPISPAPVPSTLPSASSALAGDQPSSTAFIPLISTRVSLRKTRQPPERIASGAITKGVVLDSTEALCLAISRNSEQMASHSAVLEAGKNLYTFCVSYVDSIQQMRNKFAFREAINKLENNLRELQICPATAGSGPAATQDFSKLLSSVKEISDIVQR
T2 sequence (P35968 20-1356): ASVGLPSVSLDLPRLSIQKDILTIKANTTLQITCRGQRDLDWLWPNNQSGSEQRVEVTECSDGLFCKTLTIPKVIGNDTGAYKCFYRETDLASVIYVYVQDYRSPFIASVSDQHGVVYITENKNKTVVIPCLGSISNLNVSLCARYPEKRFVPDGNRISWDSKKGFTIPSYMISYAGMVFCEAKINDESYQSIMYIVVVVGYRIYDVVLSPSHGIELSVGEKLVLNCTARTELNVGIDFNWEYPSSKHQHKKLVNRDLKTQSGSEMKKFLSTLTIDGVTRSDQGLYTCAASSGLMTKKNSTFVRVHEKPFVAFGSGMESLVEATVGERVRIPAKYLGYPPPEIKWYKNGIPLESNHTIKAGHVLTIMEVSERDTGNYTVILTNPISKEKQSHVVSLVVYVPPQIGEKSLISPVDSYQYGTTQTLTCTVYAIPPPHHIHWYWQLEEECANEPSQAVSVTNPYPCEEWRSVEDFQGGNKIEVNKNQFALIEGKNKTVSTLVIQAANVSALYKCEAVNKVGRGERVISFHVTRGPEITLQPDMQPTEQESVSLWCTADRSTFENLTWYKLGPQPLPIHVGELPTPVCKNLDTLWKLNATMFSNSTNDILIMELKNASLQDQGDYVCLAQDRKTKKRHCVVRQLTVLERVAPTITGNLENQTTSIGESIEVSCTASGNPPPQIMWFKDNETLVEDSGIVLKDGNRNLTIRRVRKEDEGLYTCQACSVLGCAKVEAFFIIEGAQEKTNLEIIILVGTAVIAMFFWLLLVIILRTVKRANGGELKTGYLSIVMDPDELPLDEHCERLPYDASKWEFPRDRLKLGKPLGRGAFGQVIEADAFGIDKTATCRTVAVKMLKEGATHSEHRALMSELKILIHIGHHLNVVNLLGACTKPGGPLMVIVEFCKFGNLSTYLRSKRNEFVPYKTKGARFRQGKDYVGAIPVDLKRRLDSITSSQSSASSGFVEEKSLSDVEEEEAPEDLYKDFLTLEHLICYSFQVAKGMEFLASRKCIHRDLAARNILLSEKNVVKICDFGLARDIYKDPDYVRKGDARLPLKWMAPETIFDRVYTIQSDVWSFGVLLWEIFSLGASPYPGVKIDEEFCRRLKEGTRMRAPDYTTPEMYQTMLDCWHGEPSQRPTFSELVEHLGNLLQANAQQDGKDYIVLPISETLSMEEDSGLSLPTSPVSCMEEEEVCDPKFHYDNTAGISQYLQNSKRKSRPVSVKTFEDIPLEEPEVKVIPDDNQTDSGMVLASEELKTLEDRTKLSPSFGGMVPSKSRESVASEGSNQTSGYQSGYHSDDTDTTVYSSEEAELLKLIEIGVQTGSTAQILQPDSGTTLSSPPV

Work on `COc1cc(OC)c(Cl)c(-c2ccc3c(NC(=O)c4ccc(N5CCNC(C)(C)C5)cc4)n[nH]c3n2)c1Cl` [3D185] yielded an inhibition at 0.01 µM ([1]; 10 nM) of -8%, an inhibition at 0.1 µM ([1]; 100 nM) of -42% and an inhibition at 1 µM ([1]; 1000 nM) of -44%. For the same compound, the IC50 ([2]; mean ± SD) was 382 nM, the “selectivity for FGFR1 over KDR” value ([2]; molecular kinase assays) was “over 760 fold” and the inhibition at 0.01 µM ([3]; 10 nM) was -3%. It also gave an inhibition at 0.1 µM ([3]; 100 nM) of -4%, an inhibition at 1 µM ([3]; 1000 nM) of 3% and an inhibition at 0.01 µM ([4]; 10 nM) of 3%. For the same compound, the inhibition at 0.1 µM ([4]; 100 nM) was 43%, the inhibition at 1 µM ([4]; 1000 nM) was 81% and the IC50 [5] was greater than 1000 nM. It also gave an IC50 [6] of 118 nM.

Source: publication PMC6704710, “Preclinical evaluation of 3D185, a novel potent inhibitor of FGFR1/2/3 and CSF-1R, in FGFR-dependent and macrophage-dominant cancer models” (Journal of Experimental & Clinical Cancer Research : CR, 2019)
